Measurements as given in patent US4564621A, “α-Aryl-α-pyridylalkanoic acid derivatives, process for preparation thereof and pharmaceutical composition comprising the same” (Fujisawa Pharmaceutical Co., Ltd., priority 1982, dated 1986).
Read-outs that look alike come from different tables or passages of the source.

Assays:
[1] = Blood pressure monitored in spasmolytic activity test (cannula in femoral artery); type: in vivo, Mongrel dogs; details: dogs
Description: (§1) Spasmolytic activity in vivo
(§2) Mongrel dogs were anesthetized with s.c. injection of morphine chloride (10 mg/kg) and urethane (1.5 g/kg). The abdomen was incised along the midline, and a ballon filled with water was introduced into the gastric antrum or jejunum. The spontaneous contraction of the gastric antrum and jejunum were continuously recorded through the balloon connected to a pressure transducer. The test drugs were given intravenously. The effect of the test drug is expressed as inhibitory percentage compared to the contractile magnitude obtained before the test drug. The blood pressure was also monitored with a pressure transducer through a cannula inserted in the femoral artery.

[2] = test system: gastric antrum; experiment: Spasmolytic activity in vivo: spontaneous contraction of the gastric antrum; design: species or system Mongrel dogs; details: dogs
Description: as §1, §2

[3] = test system: jejunum; experiment: Spasmolytic activity in vivo: spontaneous contraction of the jejunum; design: species or system Mongrel dogs; details: dogs
Description: as §1, §2

[4] = test system: ethanol ulcer; experiment: Test C: Inhibition on ethanol ulcer; type: in vivo, male Sprague-Dawley rats; details: Rattus norvegicus, 0.5 h; oral; rats; absolute ethanol 5 ml/kg 30 minutes after dosing
Description: Inhibition on ethanol ulcer
Five male Sprague-Dawley rats, aged 7 weeks and weighing about 200 g, were used per group for the study on ethanol ulcer after the fast for 24 hours.
Test compound was suspended in 0.1% methylcellulose aqueous solution, and the suspension (5 ml/kg) was orally given to each rat.
The control group was given a vehicle, i.e. 0.1% methylcellulose aqueous solution (5 ml/kg), alone in the same way.
Absolute ethanol (5 ml/kg) was orally administered 30 minutes after dosing with test compound, and one hour later, the rats were sacrificed and their stomachs were removed. The area of ulcers of each rat was measured. The mean area (mm^2) in the medicated group was compared with that in the control group.

[5] = test system: gastric secretion; experiment: Test A: Gastric secretion in Heidenhain pouch dogs (tetragastrin-stimulated total acid output); type: in vivo, Beagle dogs; details: Canis lupus familiaris, intravenous, tetragastrin 10 μg/kg/hr
Description: Gastric secretion in Heidenhain pouch dogs
Beagle dogs, weighing about 8-13 kg, were used for the study on gastric secretion. The animals were surgically provided with a vagally denervated Heidenhain pouch. One month or more later, the dogs were fasted overnight. Gastric secretion was stimulated by an intravenous infusion of tetragastrin (10 μg/kg/hr). Gastric samples were collected at 15 min intervals. After its volume was almost constant, test compound suspended in 0.1% methyl cellulose solution was injected intravenously (0.2 ml/kg). Acid concentration was determined by titrating an aliquot to pH 7.0 with 0.1N sodium hydroxide solution using automatic titration (Hiranuma RAT-11 Type). Total acid output was calculated by multiplying total volume of gastric samples by acid concentration, and percentage change of total acid output was calculated by comparing with predosing value of test compound.

[6] = test system: stress ulcer; experiment: Test B: Inhibition on stress ulcer; type: in vivo, male Sprague-Dawley rats; details: for ED50: Rattus norvegicus, read-out: ED50 (Test B, stress ulcer)
Description: Inhibition on stress ulcer
Five male Sprague-Dawley rats, aged 7 weeks and weighing about 200 g were used per group for the study on stress ulcer after the fast for 24 hours. Each animal was immobilized in a restrain cage and immersed to a level of the xiphoid in a water bath kept 22° C. The test compound suspended in 0.1% methylcellulose solution was administered orally (5 ml/kg) just before the immobilization. Seven hours later, the animals were sacrificed and their stomachs were removed. The stomach was then fixed with 2% formalin. The area of ulcers was measured for each animal. The mean area (mm^2) in the test animals was compared with that in the control animals.

[7] = British Pat. No. 666,778; cited from earlier work
[8] = oral, rats, restraint and water immersion 22° C., 7 hours

SMILES	Blood pressure change (gastric antrum) ([1]; 10 μg/Kg intravenous)	Blood pressure change (gastric antrum) ([1]; 100 μg/Kg intravenous)	Blood pressure change (jejunum) ([1]; 10 μg/Kg intravenous) [%]	Blood pressure change (jejunum) ([1]; 100 μg/Kg intravenous)	Duration (gastric antrum) ([2]; 10 μg/Kg intravenous) [min]	Inh. (gastric antrum) ([2]; 10 μg/Kg intravenous) [%]	Duration (gastric antrum) ([2]; 100 μg/Kg intravenous) [min]	Inh. (gastric antrum) ([2]; 100 μg/Kg intravenous) [%]	Duration (jejunum) ([3]; 10 μg/Kg intravenous) [min]	Inh. (jejunum) ([3]; 10 μg/Kg intravenous) [%]	Duration (jejunum) ([3]; 100 μg/Kg intravenous) [min]	Inh. (jejunum) ([3]; 100 μg/Kg intravenous) [%]	ED50 [4] [mg/kg]	ED50 [5] [mg/kg]	also measured
COC1CC(=C(c2cccs2)c2cccs2)C[N+](C)(C)C1 (centres unmarked) [Timepidium Bromide]	+4%	-19%	-3	-24%	10	55	30	92	30	59	> 60	91			
CN1CCN(CC(=O)N2c3ccccc3C(=O)Nc3cccnc32)CC1 [Gastrozepine]													14.4	0.03	ED50 [6, 8]: 36 mg/kg
CC(CN(C)C)C(C#N)(c1ccccc1)c1ccccn1 (stereo not drawn) [α-phenyl-α-(2-pyridyl)-4-(N,N-dimethylamino)-3-methylbutyronitrile]															antihistaminic activity [7]: possesses antihistaminic activity
CC(C)N(CCC(C(N)=O)(c1ccccc1)c1ccccn1)C(C)C (stereo not drawn) [Disopyramide phosphate, α-phenyl-α-(2-pyridyl)-4-(N,N-diisopropylamino)butyramide]		+3%		+1%			10	46			0	4			Blood pressure change (gastric antrum) ([1]; 1000 μg/Kg intravenous): +5%; Blood pressure change (jejunum) ([1]; 1000 μg/Kg intravenous): +14%; Duration (gastric antrum) ([2]; 1000 μg/Kg intravenous): 60 min; Inh. (gastric antrum) ([2]; 1000 μg/Kg intravenous): 88%; ED50 (Test B, stress ulcer) [6, 8]: No Effect; Duration (jejunum) ([3]; 1000 μg/Kg intravenous): > 60 min; Inh. (jejunum) ([3]; 1000 μg/Kg intravenous): 85%
CC(CC(C(N)=O)(c1ccccc1)c1ccccn1)N(C)C (centres unmarked) [Example 3, 4-(N,N-dimethylamino)-2-phenyl-2-(2-pyridyl)-valeramide]	-3%	-4%	-3	-7%	60	52	90	95	30	70	> 60	93	6.8	0.27	ED50 ([6]; po, 7 h): 2.7 mg/kg
